Here are results for three substances from patent publication US10130677B2, “Antimicrobial peptide and uses thereof” (priority 2013, dated 2018).

For one test, the system named is S. aureus JAR060131. The test is classed as cell-based, Staphylococcus aureus. The note with it: approx. 1 × 10^6 CFU/ml S. aureus JAR, within 2 hrs (Table 2). As to the method:
Polypeptides of the invention preferably have an in vitro IC99.9 of at most 150 μM after 2 hours at 37° C. against at least one microbial species in the presence of 50% plasma. Said IC99.9 is preferably determined in accordance with a method for determining the antimicrobial activity as described herein in the Examples. Said method described in the Examples for determining antimicrobial activity of microbes not associated with biofilm involves the mixing of 50 microL of a solution of a polypeptide in PBS with addition of human plasma at a final concentration of 50% and 20 microL of bacterial suspension with 5×10^6 CFU per mL of PBS in a well. After incubation of this mixture for 2 hours at 37° C. under shaking conditions, a sample is used for assessment of the bacterial counts. The lowest peptide concentration at which there is 99.9% of bacteria killed, is called the inhibitory concentration (IC) 99.9. Bacterial counts can be determined by manual CFU counting. For determining antibacterial activity for instance 1×10^6 CFU/ml bacteria are used, for determining antifungal activity for instance 1×10^5 cells/ml are used.
(§1) Peptides were incubated with 1×10^6 CFU/ml of a mid-logarithmic culture of S. aureus JAR060131, methicillin resistant S. aureus (MRSA) LUH14616, Staphylococcus epidermidis RP62a, and Pseudomonas aeruginosa PAO1 in PBS without or with addition of pooled human plasma (Sanquin, Amsterdam, the Netherlands) at a final concentration of 50%. Antimicrobial activity is expressed as the 99.9% lethal concentration (LC99.9), i.e., the lowest peptide concentration which killed ≥99.9% of bacteria after 2 hours of incubation at 37° C. under shaking conditions.

For test [1], the system named is UV-killed S. aureus JAR060131-induced IL-8 production. The test is described as follows: S. aureus neutralization in whole human blood. The test is classed as cell-based. The note with it: for IC50: UV-killed S. aureus JAR060131-induced IL-8, blood from one donor. How it is done:
(§2) Peptides were pre-incubated with 500 ng/ml LPS (E. coli 054) or 2 mg/ml LTA (S. aureus, endotoxin-free) or 1×10^9 CFU/ml of UV-killed S. aureus JAR060131 for 30 min at 37° C. Diluted whole human blood was stimulated with the peptide-LPS/LTA/S. aureus mixtures for 20 hours at 37° C. IL-12p40 and IL-8 levels in supernatants were determined using ELISA.

For test [2], the system named is LTA (S. aureus)-induced IL-8 production. The test is described as follows: LTA neutralization in whole human blood. The following applies: for IC50: LTA-induced IL-8, blood from one donor. The test is classed as cell-based.
Text: (§3) The term “anti-inflammatory activity” of a polypeptide as used herein refers to inhibiting, reducing or preventing an inflammatory response in a subject that has been infected by microbes, e.g. bacteria, viruses, fungi, and/or parasites. Anti-inflammatory activity of polypeptides of the invention is achieved by inhibiting, reducing or preventing the release of pro-inflammatory microbial compounds, such as lipoteichoic acid (LTA), peptidoglycan (PG) and/or lipopolysaccharides (LPS). Anti-inflammatory activity can be measured by methods known in the art. Examples of such method are a LPS neutralization assay and a LTA neutralization assay as described in the Examples of this application. In such method, a polypeptide of the invention is mixed with a fixed concentration of LPS or LTA, such as 500 ng/ml LPS or 2 mg/ml LTA, and incubated for 30 min. Thereafter, these mixtures were added to diluted fresh human whole blood and 20 hours thereafter the level of cytokines (e.g. 1L-8 for LTA and 1L-12p40 for LPS) in the blood sample are measured by ELISA.
as §2

Test [3] deals with LPS (E. coli 054)-induced IL-12p40 production. The test is described as follows: LPS neutralization in whole human blood. The test is classed as cell-based. The following applies: for IC90: LPS-induced IL-12p40, blood from two donors; for IC50: diluted whole human blood, 20 hours.
Text: as §3, §2

In test [4] the test system is Staphylococcus epidermidis RP62a. The format is cell-based. The note with it: 50% plasma. As to the method:
as §1

The next test deals with A. niger PagsA-lux. Kind of test: Effect on fungal growth. The format is cell-based, Aspergillus niger. The note with it: for concentration inhibiting A. niger growth: 25% plasma, light micrographs only, 16 hours (FIG. 2). How it is done: The effect of the peptides on fungal growth was assessed using Aspergillus niger. Peptides were incubated with 7.5×10^4 spores/ml of A. niger PagsA-lux in PBS without or with addition of pooled human plasma at a final concentration of 25%. As positive control, spores were treated with the antifungal caspofungin (Cancidas). Absorbance was measured over time and at 16 hours, fungal growth was visualized using light microscopy.

In test [5] the test system is S. aureus JAR060131 biofilm formation. The format is cell-based, Staphylococcus aureus. As to the method: After solubilization with ethanol, the optical density at 590 nm is determined as a measure of biofilm mass.
Peptides were incubated with 1×10^8 CFU/ml of S. aureus JAR060131 in biofilm-adjusted BM2 in 96-wells polypropylene plates as described in Antimicrob Agents Chemother 2012; 56: 2696-2704. After 24 hours incubation at 37° C., planktonic bacteria were removed by four washes with PBS and biofilms were stained with crystal violet. After solubilization with ethanol, the optical density at 590 nm was determined as a measure of biofilm mass.
To assess the antibiofilm activity of the peptides in the presence of plasma, 96-wells polypropylene plates were coated with plasma by overnight incubation with 20% plasma at 4° C. Wells were washed once with sterile water and inoculated with S. aureus and peptides as described above.

Where [6] appears, read: JAR060131 biofilm formation, 24 h.

Read-outs that look alike come from different tables or passages of the source.

The term IC90 denotes the concentration at which the effect reaches the 90% level. With “Ac-LKRLYKRLAKLIKRLYRYLKKPVR-NH2 [Peptide P145, J LKRLYKRLAKLIKRLYRYLKKPVR B]”, the IC99.9 with S. aureus JAR060131 (50% plasma) worked out at 25.6 µM; in the test on S. aureus JAR060131 (PBS), 1.6 µM. For the same substance, the “fold higher concentration than OP-145 needed to inhibit S. aureus-induced IL-8 production for >50%” value in test [1] amounted to 8 fold. The results for the IC50 in test [1], in test [2] and in test [5] (setting [6]) were 1.56 µM, 0.195 µM and 6400 nM, respectively. For the same substance, the “fold increased LTA-neutralizing ability versus OP-145” value in test [2] was found to be 4 fold. Moreover, in test [3], the IC90 was 0.75 nM. Also, the “higher bactericidal activity as compared to OP-145” value in test [4] turned out to be 43 fold. Further, the “concentration inhibiting A. niger growth” value with A. niger PagsA-lux came out at 102.4 µM. Further, the “concentration needed to inhibit biofilm formation for 50%, relative to OP-145 and P159” value in test [5] (plasma-coated wells (FIG. 3B)) is recorded as “two-fold higher concentration”.
As for “Ac-LKRLYKRVFRLLKRYYRQLRRPVR-NH2 [Peptide P159, J LKRLYKRVFRLLKRYYRQLRRPVR B]”, the IC99.9 in the test with S. aureus JAR060131 (50% plasma) is 12.8 µM; in the test with S. aureus JAR060131 (PBS) it was 1.6 µM. In addition, the IC50 was found to be 0.195 µM in test [1]; 0.195 µM in test [2]; 0.05 nM in test [3]; 12800 nM in test [5] (setting [6]); 3200 nM in test [5] (plasma-coated wells (FIG. 3B), read-out: concentration inhibiting biofilm formation for 50%). The “fold increased LTA-neutralizing ability versus OP-145” value in test [2] was 4 fold. Besides, in test [3], the IC90 was 0.25 nM. For the same substance, the “higher bactericidal activity as compared to OP-145” value in test [4] is 43 fold. Besides, in the test on A. niger PagsA-lux, the “concentration inhibiting A. niger growth” value amounted to 102.4 µM. Further, the “fold lower antifungal activity as compared to OP-145” value with A. niger PagsA-lux (PBS) was 2 fold.
Consider “Ac-LKRVWKRVFKLLKRYWRQLKKPVR-NH2 [Peptide P148, J LKRVWKRVFKLLKRYWRQLKKPVR B]”, for which the IC99.9 stood at 12.8 µM with S. aureus JAR060131 (50% plasma) and 1.6 µM with S. aureus JAR060131 (PBS). For the same substance, in test [1], the “fold higher concentration than OP-145 needed to inhibit S. aureus-induced IL-8 production for >50%” value came to 8 fold. The IC50 in test [1] was found to be 1.56 µM; in test [2], 0.195 µM; in test [3], 0.03 nM; in test [5] (setting [6]) it was 12800 nM. For the same substance, the “fold increased LTA-neutralizing ability versus OP-145” value in test [2] came to 4 fold. Also, the IC90 in test [3] turned out to be 0.25 nM. Also, in test [4], the “higher bactericidal activity as compared to OP-145” value amounted to 43 fold. Moreover, the “concentration inhibiting A. niger growth” value in the test on A. niger PagsA-lux was found to be 102.4 µM. In addition, in the test on A. niger PagsA-lux (PBS), the “fold higher antifungal activity as compared to OP-145” value is reported as 4 fold. Also, in the test on A. niger PagsA-lux (PBS, optical density (FIG. 1)), the “concentration inhibiting A. niger growth (by >99.9%)” value was found to be 0.8 µM. In test [5] (plasma-coated wells (FIG. 3B)), the “concentration needed to inhibit biofilm formation for 50%, relative to OP-145 and P159” value is “two-fold higher concentration”.
